Laboratory results: patent US12402624B2, “Polymorphs of mesotrione metal chelate and preparation process” (priority 2017, dated 2025)

Assay: Particle size distribution (D50, D90) of the polymorph
Type: physicochemical
Conditions: for Particle size D(0.9): D90; for Particle size D(0.5): median diameter D50
[1] = listed as Mesotrione copper chelate form II-a
[2] = listed as Mesotrione copper chelate form II-b
[3] = listed as Mesotrione copper chelate form I-a
[4] = listed as Mesotrione copper chelate form I-b

Substance | Particle size D(0.9) [1] [μm] | Particle size D(0.9) [2] [μm] | Particle size D(0.5) [1] [μm] | Particle size D(0.5) [2] [μm] | Particle size D(0.9) [3] [μm] | Particle size D(0.9) [4] [μm] | Particle size D(0.5) [3] [μm] | Particle size D(0.5) [4] [μm]
mesotrione copper chelate [Mesotrione copper chelate form II] | 34.08 | 27.33 | 17.58 | 16.74 |  |  |  | 
mesotrione copper chelate [Mesotrione copper chelate form I] |  |  |  |  | 13.02 | 13.22 | 7.94 | 7.62
